Among the test systems are TK-10; SK-OV-3; NCI-H522; NCI-H23; SK-MEL-28; ACHN; SK-MEL-2; SF-539; UO-31; SNB-19; KM12; U-251; Malme-3M; HL-60; CAKI-1; NCI-H226.
What all share (assay): NCI tumour cell line growth inhibition, 48 h

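The compound was tested at five concentrations on cells cultured in 96-well plates, with a 48-hour exposure period. GI50: concentration for 50% inhibition of growth.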 The source made the active and inactive calls. Rule as the data show it: active = GI50 up to about 1.1 µM and inactive = higher.

On to `N#CCc1nnc(N)o1`, for which the GI50 in the test with TK-10, in the test on SK-OV-3, in the test with NCI-H522, in the test on NCI-H23, in the test on SK-MEL-28 and in the test with ACHN was > 100 µM (inactive) in each case. Moreover, the GI50 in the test on SK-MEL-2, in the test on SF-539, in the test with UO-31, in the test with SNB-19, with KM12 and in the test on U-251 was > 100 µM (inactive) in each case. The GI50 in the test on Malme-3M, in the test with HL-60, in the test on CAKI-1 and in the test on NCI-H226 was > 100 µM (inactive) each time.
On to `C/C(CN1C(=O)c2ccccc2C1=O)=N\NS(=O)(=O)c1ccc(F)cc1`, for which the GI50 in the test with TK-10, in the test on SK-OV-3, in the test on NCI-H522, with NCI-H23, in the test on SK-MEL-28 and in the test with ACHN was > 100 µM (inactive) in each case. Moreover, the GI50 with SK-MEL-2, in the test with SF-539, in the test on UO-31, with SNB-19, in the test on KM12 and with U-251 was > 100 µM (inactive) in each case. Moreover, the GI50 with Malme-3M, with HL-60, with CAKI-1 and with NCI-H226 was > 100 µM (inactive) throughout.
Consider `CC(C)N(C(=O)C12C3C4C1C1C2C3C41C#N)C(C)C` (centres undefined), for which the GI50 in the test with TK-10 was > 100 µM (inactive); with SK-OV-3, > 100 µM (inactive); in the test with NCI-H522, > 87.1 µM (inactive); in the test with NCI-H23, > 100 µM (inactive); in the test on SK-MEL-28, > 100 µM (inactive); in the test with ACHN, > 100 µM (inactive). In addition, the GI50 in the test with SK-MEL-2, in the test on SF-539, with UO-31, in the test on SNB-19, with KM12 and with U-251 was > 100 µM (inactive) in each case. The GI50 in the test with Malme-3M was > 100 µM (inactive); with HL-60 it was > 41.4 µM (inactive); in the test with CAKI-1, > 100 µM (inactive); with NCI-H226, > 100 µM (inactive).
Regarding `CCCCC/C=C1\CCC(CN(C)C)C1=O` (centres undefined), the GI50 was > 23.4 µM (inactive) in the test with TK-10; 15 µM (inactive) in the test with SK-OV-3; 4.06 µM (inactive) in the test on NCI-H522; 17.7 µM (inactive) in the test with NCI-H23; 9.89 µM (inactive) in the test on SK-MEL-28; 13.9 µM (inactive) in the test with ACHN. The GI50 was 19.9 µM (inactive) in the test on SK-MEL-2; 10.9 µM (inactive) with SF-539; 17 µM (inactive) in the test on UO-31; 19.5 µM (inactive) in the test on SNB-19; 4.8 µM (inactive) in the test on KM12; 8.2 µM (inactive) in the test with U-251. The GI50 is 14.6 µM (inactive) in the test with Malme-3M, 6.97 µM (inactive) in the test with HL-60, 7.05 µM (inactive) in the test with CAKI-1 and 15.5 µM (inactive) in the test on NCI-H226.
`O=C(COc1ccc(Cl)cc1)N1N=C(c2ccc([N+](=O)[O-])o2)CC1(O)c1ccccc1` (centres undefined): the GI50 in the test with TK-10 was 8.63 µM (inactive); in the test on SK-OV-3, 19.3 µM (inactive); in the test on NCI-H522, 15.5 µM (inactive); in the test on NCI-H23 it was 2.03 µM (inactive); with SK-MEL-28, 12.2 µM (inactive); with ACHN, 6.03 µM (inactive). The GI50 with SK-MEL-2 was 7.24 µM (inactive); in the test with SF-539, 13.1 µM (inactive); with UO-31, 11.4 µM (inactive); in the test with SNB-19, 11.9 µM (inactive); in the test with KM12 it was 6.58 µM (inactive); in the test on U-251, 4.94 µM (inactive). Also, the GI50 in the test with Malme-3M is 10.4 µM (inactive); in the test on HL-60, 1.77 µM (inactive); in the test with CAKI-1 it was 17.4 µM (inactive); in the test with NCI-H226, 28.2 µM (inactive).
`NNC(=S)N/N=C(/C(=O)Nc1cc(Cl)ccc1Cl)C1C(=O)Nc2ccccc2[S+]1[O-]` (centres undefined): the GI50 was > 100 µM (inactive) in the test on TK-10; > 100 µM (inactive) in the test on SK-OV-3; 68.9 µM (inactive) in the test with NCI-H522; > 100 µM (inactive) in the test on NCI-H23; > 100 µM (inactive) in the test on SK-MEL-28; > 100 µM (inactive) in the test with ACHN. Further, the GI50 with SK-MEL-2, in the test on SF-539, in the test with UO-31, in the test with SNB-19, in the test on KM12 and in the test on U-251 was > 100 µM (inactive) in each case. Moreover, the GI50 with Malme-3M, with HL-60, in the test on CAKI-1 and in the test on NCI-H226 was > 100 µM (inactive) throughout.
Regarding `Cc1cccc(C)c1NC(=O)CCCC(=O)C1/C(=N/NC(=O)CC#N)CCC/C1=N\NC(=O)CC#N` (centres undefined), the GI50 in the test with TK-10, with SK-OV-3, with NCI-H522, in the test on NCI-H23, with SK-MEL-28 and in the test on ACHN was > 100 µM (inactive) each time. Moreover, the GI50 in the test on SK-MEL-2, in the test with SF-539, with UO-31, with SNB-19, in the test with KM12 and in the test with U-251 was > 100 µM (inactive) throughout. Also, the GI50 with Malme-3M, in the test with HL-60, with CAKI-1 and in the test on NCI-H226 was > 100 µM (inactive) each time.
With `C[C@H]1CCC2C(CN3CCCCC3)C(=O)OC2[C@]2(C)C(=O)CC(N3CCCCC3)C12O` (some centres undefined), the GI50 in the test with TK-10 is 16.6 µM (inactive); in the test with SK-OV-3, 28.6 µM (inactive); in the test with NCI-H522 it was 1.38 µM (inactive); in the test on NCI-H23, 4.3 µM (inactive); in the test on SK-MEL-28, 4.18 µM (inactive); in the test on ACHN, 2.8 µM (inactive). Further, the GI50 was 10.7 µM (inactive) in the test with SK-MEL-2; 2.26 µM (inactive) in the test on SF-539; 13.7 µM (inactive) in the test on UO-31; 20 µM (inactive) in the test on SNB-19; 3.09 µM (inactive) in the test with KM12; 5.53 µM (inactive) in the test on U-251. In addition, the GI50 in the test on Malme-3M is 9.44 µM (inactive); with HL-60 it was 1.56 µM (inactive); with CAKI-1 it was 15.7 µM (inactive); with NCI-H226 it was 0.083 µM (active).
Turning to `COc1ccc(C2=C3c4cc(OC)c(OC)cc4CCN3C(=S)SS2)cc1OC`, the GI50 in the test with TK-10 is > 100 µM (inactive); in the test on SK-OV-3, > 100 µM (inactive); in the test with NCI-H522 it was 50.1 µM (inactive); in the test on NCI-H23, 50.7 µM (inactive); with SK-MEL-28, 70.6 µM (inactive); in the test with ACHN, 54.8 µM (inactive). For the same molecule, the GI50 with SK-MEL-2 is 57 µM (inactive); in the test on SF-539, > 100 µM (inactive); in the test with UO-31, > 100 µM (inactive); with SNB-19, 69 µM (inactive); with KM12, 66.7 µM (inactive); in the test with U-251 it was 61.1 µM (inactive). Further, the GI50 with Malme-3M is 24 µM (inactive); with HL-60, 24.4 µM (inactive); in the test on CAKI-1, 77.6 µM (inactive); in the test on NCI-H226, > 100 µM (inactive).

The values above are taken from ChEMBL document CHEMBL1201862, “PubChem BioAssay data set” (2004).
